From ChEMBL document CHEMBL1157712, “Hit to lead account of the discovery of bisbenzamide and related ureidobenzamide inhibitors of Rho kinase” (J Med Chem, 2010)
Values belong to the molecule of their own block, whether it stands above or below them.

Tests used:
[1] = target: T1, Protein kinase C epsilon type (Homo sapiens, UniProt Q02156); assay: Inhibition of PKCepsilon
T1 sequence (Q02156 whole entry): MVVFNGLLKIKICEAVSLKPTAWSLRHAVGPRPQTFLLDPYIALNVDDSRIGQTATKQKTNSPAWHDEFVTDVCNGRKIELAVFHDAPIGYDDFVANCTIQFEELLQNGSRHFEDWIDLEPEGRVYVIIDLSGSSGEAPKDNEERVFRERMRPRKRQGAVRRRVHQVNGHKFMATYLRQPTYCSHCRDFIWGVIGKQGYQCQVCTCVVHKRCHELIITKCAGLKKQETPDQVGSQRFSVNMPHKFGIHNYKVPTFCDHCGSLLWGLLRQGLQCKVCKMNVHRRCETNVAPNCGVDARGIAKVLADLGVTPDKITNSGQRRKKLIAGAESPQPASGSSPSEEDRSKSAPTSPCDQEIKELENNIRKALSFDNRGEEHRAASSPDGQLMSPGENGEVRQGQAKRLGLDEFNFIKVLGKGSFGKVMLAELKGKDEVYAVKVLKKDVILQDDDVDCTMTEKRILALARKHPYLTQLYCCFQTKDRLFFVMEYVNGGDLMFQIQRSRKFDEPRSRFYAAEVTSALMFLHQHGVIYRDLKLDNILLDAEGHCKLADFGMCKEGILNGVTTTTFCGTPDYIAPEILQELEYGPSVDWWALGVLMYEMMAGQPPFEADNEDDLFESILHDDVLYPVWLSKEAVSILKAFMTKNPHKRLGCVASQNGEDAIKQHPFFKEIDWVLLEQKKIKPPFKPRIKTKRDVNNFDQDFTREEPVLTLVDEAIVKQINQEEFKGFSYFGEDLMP

[2] = target: Protein kinase C alpha type (Homo sapiens) (UniProt P17252); assay: Inhibition of PKCalpha; settings: values are per cent of control
[3] = target: Serine/threonine-protein kinase N2 (Homo sapiens, UniProt Q16513); assay: Inhibition of PRK2; values are per cent of control
[4] = target: Lymphokine-activated killer T-cell-originated protein kinase (Homo sapiens) (UniProt Q96KB5); assay: Inhibition of PBK at 3 uM relative to control; values are per cent of control
[5] = target: Cyclin-dependent kinase 2 (Homo sapiens) (UniProt P24941); assay: Inhibition of CDK2 at 3 uM relative to control; values are per cent of control
[6] = target: MAP kinase-interacting serine/threonine-protein kinase 1 (Homo sapiens) (UniProt Q9BUB5); assay: Inhibition of MNK1 at 3 uM relative to control; values are per cent of control
[7] = target: MAP kinase-interacting serine/threonine-protein kinase 2 (Homo sapiens) (UniProt Q9HBH9); assay: Inhibition of MNK2 at 3 uM relative to control; values are per cent of control
[8] = target: Serine/threonine-protein kinase 3 (Homo sapiens) (UniProt Q13188); assay: Inhibition of MST2 at 3 uM relative to control; values are per cent of control
[9] = target: Serine/threonine-protein kinase PLK1 (Homo sapiens, UniProt P53350); assay: Inhibition of PLK1 at 3 uM relative to control; values are per cent of control
[10] = target: Ribosomal protein S6 kinase beta-1 (Homo sapiens) (UniProt P23443); assay: Inhibition of S6K1 at 3 uM relative to control; values are per cent of control
[11] = target: Serine/threonine-protein kinase Nek2 (Homo sapiens) (UniProt P51955); assay: Inhibition of NEK2a at 3 uM relative to control; values are per cent of control
[12] = target: Aurora kinase B (Homo sapiens) (UniProt Q96GD4); assay: Inhibition of Aurora B at 3 uM relative to control; values are per cent of control
[13] = target: Glycogen synthase kinase-3 beta (Homo sapiens) (UniProt P49841); assay: Inhibition of GSK3-beta at 3 uM relative to control; values are per cent of control
[14] = target: Tyrosine-protein kinase ITK/TSK (Homo sapiens, UniProt Q08881); assay: Inhibition of ITK
[15] = target: MAP kinase-interacting serine/threonine-protein kinase 2 (Homo sapiens) (UniProt Q9HBH9); settings: 3 to 6 uM
Description: Inhibition of MNK2 at 3 to 6 uM relative to control

[16] = target: Ribosomal protein S6 kinase alpha-5 (Homo sapiens) (UniProt O75582); settings: 3 to 6 uM
Description: Inhibition of MSK1 at 3 to 6 uM relative to control

[17] = target: Serine/threonine-protein kinase mTOR (Homo sapiens) (UniProt P42345); settings: 3 to 6 uM
Description: Inhibition of mTOR at 3 to 6 uM relative to control

[18] = target: RAC-beta serine/threonine-protein kinase (Homo sapiens) (UniProt P31751); settings: 3 to 6 uM
Description: Inhibition of PKBbeta at 3 to 6 uM relative to control

[19] = target: Serine/threonine-protein kinase D1 (Homo sapiens) (UniProt Q15139); settings: 3 to 6 uM
Description: Inhibition of PKD1 at 3 to 6 uM relative to control

[20] = target: Ribosomal protein S6 kinase alpha-3 (Homo sapiens) (UniProt P51812); settings: 3 to 6 uM
Description: Inhibition of RSK2 at 3 to 6 uM relative to control

[21] = target: Ribosomal protein S6 kinase beta-1 (Homo sapiens) (UniProt P23443); settings: 3 to 6 uM
Description: Inhibition of S6K1 at 3 to 6 uM relative to control

[22] = target: SRSF protein kinase 1 (Homo sapiens) (UniProt Q96SB4); settings: 3 to 6 uM
Description: Inhibition of SRPK1 at 3 to 6 uM relative to control

[23] = target: Casein kinase I isoform alpha (Homo sapiens) (UniProt P48729); settings: 3 to 6 uM
Description: Inhibition of CK1 at 3 to 6 uM relative to control

[24] = target: Dual specificity protein kinase CLK1 (Homo sapiens) (UniProt P49759); settings: 3 to 6 uM
Description: Inhibition of CLK1 at 3 to 6 uM relative to control

[25] = target: Tyrosine-protein kinase CSK (Homo sapiens) (UniProt P41240); settings: 3 to 6 uM
Description: Inhibition of CSK at 3 to 6 uM relative to control

[26] = target: Discoidin domain-containing receptor 2 (Homo sapiens) (UniProt Q16832); settings: 3 to 6 uM
Description: Inhibition of DDR2 at 3 to 6 uM relative to control

[27] = target: Mitogen-activated protein kinase 15 (Homo sapiens) (UniProt Q8TD08); settings: 3 to 6 uM
Description: Inhibition of ERK8 at 3 to 6 uM relative to control

Caspase-1 (Homo sapiens) = Caspase-1 (Homo sapiens) (UniProt P29466); settings: 3 to 6 uM
Description: Inhibition of ICE at 3 to 6 uM relative to control

[28] = target: Tyrosine-protein kinase JAK3 (Homo sapiens) (UniProt P52333); settings: 3 to 6 uM
Description: Inhibition of JAK3 at 3 to 6 uM relative to control

[29] = target: Mitogen-activated protein kinase 8 (Homo sapiens) (UniProt P45983); settings: 3 to 6 uM
Description: Inhibition of JNK1a1 at 3 to 6 uM relative to control

Chain of Ribosomal protein S6 kinase beta-1 (Homo sapiens) (P23443 whole entry, looked up): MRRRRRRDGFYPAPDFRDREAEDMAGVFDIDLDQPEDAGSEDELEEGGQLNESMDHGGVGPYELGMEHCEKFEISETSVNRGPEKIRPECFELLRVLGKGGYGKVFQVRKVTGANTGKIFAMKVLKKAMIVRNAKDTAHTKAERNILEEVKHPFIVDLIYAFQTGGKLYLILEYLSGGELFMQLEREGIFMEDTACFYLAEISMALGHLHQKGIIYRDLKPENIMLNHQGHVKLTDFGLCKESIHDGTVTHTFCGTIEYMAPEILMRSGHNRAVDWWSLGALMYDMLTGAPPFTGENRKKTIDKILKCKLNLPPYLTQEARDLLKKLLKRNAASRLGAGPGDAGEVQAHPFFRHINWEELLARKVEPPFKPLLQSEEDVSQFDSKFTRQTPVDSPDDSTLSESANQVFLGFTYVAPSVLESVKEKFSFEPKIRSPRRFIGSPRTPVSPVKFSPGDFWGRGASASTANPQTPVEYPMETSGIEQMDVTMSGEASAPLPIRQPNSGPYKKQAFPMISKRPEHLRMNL
Chain of MAP kinase-interacting serine/threonine-protein kinase 2 (Homo sapiens) (Q9HBH9 whole entry, looked up): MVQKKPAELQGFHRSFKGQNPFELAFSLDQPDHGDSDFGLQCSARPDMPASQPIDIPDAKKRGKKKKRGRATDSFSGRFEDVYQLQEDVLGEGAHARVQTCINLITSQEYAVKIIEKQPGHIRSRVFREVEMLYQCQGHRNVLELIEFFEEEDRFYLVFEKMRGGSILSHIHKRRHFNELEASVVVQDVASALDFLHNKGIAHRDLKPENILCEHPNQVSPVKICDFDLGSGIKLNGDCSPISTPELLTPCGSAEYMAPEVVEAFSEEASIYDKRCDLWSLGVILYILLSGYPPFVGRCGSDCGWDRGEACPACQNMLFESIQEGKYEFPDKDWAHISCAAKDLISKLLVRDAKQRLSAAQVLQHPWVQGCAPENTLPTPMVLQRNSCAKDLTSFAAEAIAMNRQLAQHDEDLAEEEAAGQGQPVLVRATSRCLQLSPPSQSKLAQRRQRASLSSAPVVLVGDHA
Chain of Ribosomal protein S6 kinase alpha-3 (Homo sapiens) (P51812 whole entry): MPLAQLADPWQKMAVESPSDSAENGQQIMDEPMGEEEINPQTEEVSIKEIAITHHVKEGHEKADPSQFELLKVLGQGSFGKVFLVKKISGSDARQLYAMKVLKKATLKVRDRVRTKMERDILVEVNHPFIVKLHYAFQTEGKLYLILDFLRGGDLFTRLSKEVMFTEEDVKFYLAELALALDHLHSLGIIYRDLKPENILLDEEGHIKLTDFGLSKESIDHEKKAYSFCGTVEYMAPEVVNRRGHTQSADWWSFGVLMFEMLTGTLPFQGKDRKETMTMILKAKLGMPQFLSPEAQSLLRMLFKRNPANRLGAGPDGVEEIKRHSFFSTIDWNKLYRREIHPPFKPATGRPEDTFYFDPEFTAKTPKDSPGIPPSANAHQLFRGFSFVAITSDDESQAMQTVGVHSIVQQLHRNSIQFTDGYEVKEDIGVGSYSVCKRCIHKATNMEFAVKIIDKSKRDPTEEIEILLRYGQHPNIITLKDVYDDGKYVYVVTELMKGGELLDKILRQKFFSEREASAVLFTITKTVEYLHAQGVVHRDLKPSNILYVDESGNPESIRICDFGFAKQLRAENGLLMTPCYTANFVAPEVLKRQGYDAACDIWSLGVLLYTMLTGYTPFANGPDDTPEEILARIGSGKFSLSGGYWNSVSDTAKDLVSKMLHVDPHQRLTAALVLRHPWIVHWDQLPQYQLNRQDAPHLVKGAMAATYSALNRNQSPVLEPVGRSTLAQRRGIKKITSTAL
Chain of Tyrosine-protein kinase CSK (Homo sapiens) (P41240 2-450 limits assumed): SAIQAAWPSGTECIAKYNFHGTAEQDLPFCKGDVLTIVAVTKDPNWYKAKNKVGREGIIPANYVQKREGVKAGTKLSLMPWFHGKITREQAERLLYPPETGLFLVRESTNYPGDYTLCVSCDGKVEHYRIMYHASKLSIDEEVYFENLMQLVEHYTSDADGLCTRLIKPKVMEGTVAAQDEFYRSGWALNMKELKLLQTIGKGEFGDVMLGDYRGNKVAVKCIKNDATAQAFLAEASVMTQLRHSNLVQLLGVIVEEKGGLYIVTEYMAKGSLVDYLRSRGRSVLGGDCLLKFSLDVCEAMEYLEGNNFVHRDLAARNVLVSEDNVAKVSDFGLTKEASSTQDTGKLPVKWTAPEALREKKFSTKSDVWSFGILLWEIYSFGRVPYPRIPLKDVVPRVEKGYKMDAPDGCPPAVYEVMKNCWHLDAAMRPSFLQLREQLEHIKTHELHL
Chain of Serine/threonine-protein kinase 3 (Homo sapiens) (Q13188 whole entry): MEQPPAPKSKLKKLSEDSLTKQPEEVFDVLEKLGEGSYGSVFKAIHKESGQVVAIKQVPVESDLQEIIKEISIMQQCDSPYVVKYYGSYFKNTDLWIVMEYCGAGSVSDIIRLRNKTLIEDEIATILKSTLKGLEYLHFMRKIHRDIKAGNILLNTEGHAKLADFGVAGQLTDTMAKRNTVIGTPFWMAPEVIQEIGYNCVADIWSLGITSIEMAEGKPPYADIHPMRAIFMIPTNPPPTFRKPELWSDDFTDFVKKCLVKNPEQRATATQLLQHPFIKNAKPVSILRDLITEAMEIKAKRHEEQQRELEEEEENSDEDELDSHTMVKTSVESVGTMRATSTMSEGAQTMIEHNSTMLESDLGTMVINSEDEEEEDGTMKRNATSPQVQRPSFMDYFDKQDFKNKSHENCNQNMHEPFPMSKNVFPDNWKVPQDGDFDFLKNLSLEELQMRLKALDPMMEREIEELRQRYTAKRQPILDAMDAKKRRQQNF
Chain of Serine/threonine-protein kinase N2 (Q16513 whole entry, looked up): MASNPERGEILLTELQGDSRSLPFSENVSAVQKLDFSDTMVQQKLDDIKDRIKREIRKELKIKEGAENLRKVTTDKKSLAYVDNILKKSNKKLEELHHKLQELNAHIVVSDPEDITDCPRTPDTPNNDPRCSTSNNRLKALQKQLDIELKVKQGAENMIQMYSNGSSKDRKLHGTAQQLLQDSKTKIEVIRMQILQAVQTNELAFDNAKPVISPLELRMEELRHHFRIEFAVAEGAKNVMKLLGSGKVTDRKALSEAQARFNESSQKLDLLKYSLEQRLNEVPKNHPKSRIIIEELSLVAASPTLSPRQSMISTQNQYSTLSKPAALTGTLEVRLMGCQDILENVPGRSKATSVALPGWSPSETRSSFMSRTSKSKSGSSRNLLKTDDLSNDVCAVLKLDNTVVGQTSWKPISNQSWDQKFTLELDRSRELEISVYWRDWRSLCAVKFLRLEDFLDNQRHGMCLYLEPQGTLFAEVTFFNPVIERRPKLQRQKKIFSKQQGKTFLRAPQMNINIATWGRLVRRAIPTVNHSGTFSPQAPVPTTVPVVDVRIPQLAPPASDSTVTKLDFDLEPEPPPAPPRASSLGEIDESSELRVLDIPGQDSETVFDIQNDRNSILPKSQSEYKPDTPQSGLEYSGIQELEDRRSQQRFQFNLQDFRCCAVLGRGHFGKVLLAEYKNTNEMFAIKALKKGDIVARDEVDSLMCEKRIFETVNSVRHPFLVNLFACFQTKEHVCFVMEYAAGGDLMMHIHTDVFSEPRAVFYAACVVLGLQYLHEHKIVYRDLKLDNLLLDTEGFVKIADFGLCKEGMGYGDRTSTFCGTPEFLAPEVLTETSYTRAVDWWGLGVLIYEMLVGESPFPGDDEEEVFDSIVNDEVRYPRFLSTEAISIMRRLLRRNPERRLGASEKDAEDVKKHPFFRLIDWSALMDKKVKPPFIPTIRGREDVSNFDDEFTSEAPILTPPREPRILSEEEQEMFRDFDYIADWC
Chain of Discoidin domain-containing receptor 2 (Homo sapiens) (Q16832 whole entry, the tested form may be a part): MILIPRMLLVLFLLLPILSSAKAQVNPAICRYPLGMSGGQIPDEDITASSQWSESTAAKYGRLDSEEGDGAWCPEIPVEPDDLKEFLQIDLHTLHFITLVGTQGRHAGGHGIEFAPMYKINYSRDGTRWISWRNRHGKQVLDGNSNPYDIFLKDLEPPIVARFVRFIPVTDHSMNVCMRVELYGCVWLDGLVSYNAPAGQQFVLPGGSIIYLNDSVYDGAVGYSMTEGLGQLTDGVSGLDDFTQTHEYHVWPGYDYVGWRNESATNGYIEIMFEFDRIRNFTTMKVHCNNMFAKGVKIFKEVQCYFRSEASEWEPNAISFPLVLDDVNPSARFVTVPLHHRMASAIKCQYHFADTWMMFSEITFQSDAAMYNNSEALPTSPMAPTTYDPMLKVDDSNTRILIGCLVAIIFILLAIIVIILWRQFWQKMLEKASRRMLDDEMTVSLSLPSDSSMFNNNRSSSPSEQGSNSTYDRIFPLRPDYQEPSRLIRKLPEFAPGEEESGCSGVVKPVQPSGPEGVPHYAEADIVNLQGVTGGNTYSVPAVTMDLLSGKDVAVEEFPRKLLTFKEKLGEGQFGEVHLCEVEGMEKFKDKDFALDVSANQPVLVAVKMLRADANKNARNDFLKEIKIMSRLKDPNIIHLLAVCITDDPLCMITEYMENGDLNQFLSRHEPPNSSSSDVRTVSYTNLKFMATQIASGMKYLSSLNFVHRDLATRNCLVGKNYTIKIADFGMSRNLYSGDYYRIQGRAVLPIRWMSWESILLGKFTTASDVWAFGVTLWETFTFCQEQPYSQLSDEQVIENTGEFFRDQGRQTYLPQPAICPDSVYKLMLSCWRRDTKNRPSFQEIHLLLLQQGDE
Chain of MAP kinase-interacting serine/threonine-protein kinase 1 (Homo sapiens) (Q9BUB5 whole entry, looked up): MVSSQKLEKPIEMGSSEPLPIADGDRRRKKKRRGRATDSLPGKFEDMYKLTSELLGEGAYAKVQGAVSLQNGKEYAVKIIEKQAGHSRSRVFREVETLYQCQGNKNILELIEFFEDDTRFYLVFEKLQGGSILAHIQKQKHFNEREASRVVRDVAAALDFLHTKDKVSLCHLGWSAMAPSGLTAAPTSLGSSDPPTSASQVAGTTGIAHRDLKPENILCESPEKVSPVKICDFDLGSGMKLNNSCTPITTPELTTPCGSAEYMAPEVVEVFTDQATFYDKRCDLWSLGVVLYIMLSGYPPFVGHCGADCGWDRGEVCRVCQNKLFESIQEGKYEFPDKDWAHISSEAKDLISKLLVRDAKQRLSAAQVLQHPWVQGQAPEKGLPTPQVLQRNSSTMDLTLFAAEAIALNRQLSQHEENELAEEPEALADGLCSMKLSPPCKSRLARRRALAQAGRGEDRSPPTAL

IC50 [1]: > 5 µM | residual activity [2]: 50% | residual activity [3]: 33% | residual activity [5]: > 50% | residual activity [6]: > 50% | residual activity [7]: > 50% | residual activity [8]: > 50% | residual activity [9]: > 50% | residual activity [10]: > 50% | residual activity [11]: > 50% | residual activity [12]: > 50% | residual activity [13]: > 50%
SMILES: NC(=O)c1ccc(NC(=O)NCc2cccc(C(=O)Nc3ccc4c(c3)CNCC4)c2)cc1
residual activity [4]: > 50%

IC50 [14]: > 10 µM | residual activity [15]: > 50% | residual activity [16]: > 50% | residual activity [17]: > 50% | residual activity [18]: > 50% | residual activity [19]: > 50% | residual activity [20]: > 50% | residual activity [21]: > 50% | residual activity [22]: > 50% | residual activity [23]: > 50% | residual activity [24]: > 50% | residual activity [25]: > 50% | residual activity [26]: > 50% | residual activity (Caspase-1 (Homo sapiens)): > 50% | residual activity [28]: > 50% | residual activity [29]: > 50%
SMILES: COc1ccc(C(=O)NCc2cccc(C(=O)Nc3ccc4c(c3)CNCC4)c2)cc1OC
residual activity [27]: > 50%
